Measurements from ChEMBL document CHEMBL1932947, “Emodin inhibits migration and invasion of DLD-1 (PRL-3) cells via inhibition of PRL-3 phosphatase activity” (Bioorg Med Chem Lett, 2012).
pIC50: −log10 of the molar value. Calls of active or inactive are those of the source. The calls are words filed in the database; no cut-off is given here.

Legend:
[1] = biological target: T1, Protein tyrosine phosphatase type IVA 3 (Homo sapiens, UniProt O75365); assay: Inhibition of PRL-3-mediated cell migration in human DLD1 cells at 40 uM after 15 hrs by crystal violet staining based microscopic assay; settings: DLD-1
[2] = biological target: T1, Protein tyrosine phosphatase type IVA 3; assay: Inhibition of PRL-3-mediated cell invasion in human DLD1 cells after 20 hrs using crystal violet staining by Matrigel invasion assay; type: cell-based; settings: DLD-1
[3] = biological target: T1, Protein tyrosine phosphatase type IVA 3; assay: Inhibition of PRL3 after 1 hr by DiFMUP assay
[4] = biological target: T1, Protein tyrosine phosphatase type IVA 3; assay: Inhibition of PRL-3-mediated cell invasion in human DLD1 cells at 40 uM after 20 hrs using crystal violet staining by Matrigel invasion assay; type: cell-based; settings: DLD-1
[5] = biological target: T1, Protein tyrosine phosphatase type IVA 3; assay: Inhibition of PRL3-mediated ezrin phosphorylation in human DLD1 cells assessed as increase in alpha-ERM-Thr567 phosphorylation at 10 to 40 uM after 15 hrs by chemiluminescence method relative to control; type: cell-based; settings: DLD-1
[6] = biological target: Ezrin (Homo sapiens) (UniProt P15311); assay: Inhibition of ezrin phosphorylation in human DLD1 cells assessed as increase in alpha-ERM-Thr567 phosphorylation at 10 to 40 uM after 15 hrs by chemiluminescence method; type: cell-based; settings: DLD-1
[7] = system: DLD-1; assay: Cytotoxicity against human DLD1 cells expressing PRL-3 assessed as inhibition of cell proliferation up to 50 uM after 24 hrs by WST-1 assay; type: cell-based; settings: dld-1, 24 h
[8] = biological target: T1, Protein tyrosine phosphatase type IVA 3; assay: Inhibition of PRL-3-mediated cell migration in human DLD1 cells after 15 hrs by crystal violet staining based microscopic assay; settings: DLD-1

T1 sequence (O75365 whole entry): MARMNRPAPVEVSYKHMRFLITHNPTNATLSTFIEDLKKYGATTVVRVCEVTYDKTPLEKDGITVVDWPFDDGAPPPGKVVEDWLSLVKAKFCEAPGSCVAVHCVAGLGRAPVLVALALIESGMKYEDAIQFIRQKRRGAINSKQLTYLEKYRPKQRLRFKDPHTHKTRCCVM
Chain of Ezrin (Homo sapiens) (P15311 whole entry): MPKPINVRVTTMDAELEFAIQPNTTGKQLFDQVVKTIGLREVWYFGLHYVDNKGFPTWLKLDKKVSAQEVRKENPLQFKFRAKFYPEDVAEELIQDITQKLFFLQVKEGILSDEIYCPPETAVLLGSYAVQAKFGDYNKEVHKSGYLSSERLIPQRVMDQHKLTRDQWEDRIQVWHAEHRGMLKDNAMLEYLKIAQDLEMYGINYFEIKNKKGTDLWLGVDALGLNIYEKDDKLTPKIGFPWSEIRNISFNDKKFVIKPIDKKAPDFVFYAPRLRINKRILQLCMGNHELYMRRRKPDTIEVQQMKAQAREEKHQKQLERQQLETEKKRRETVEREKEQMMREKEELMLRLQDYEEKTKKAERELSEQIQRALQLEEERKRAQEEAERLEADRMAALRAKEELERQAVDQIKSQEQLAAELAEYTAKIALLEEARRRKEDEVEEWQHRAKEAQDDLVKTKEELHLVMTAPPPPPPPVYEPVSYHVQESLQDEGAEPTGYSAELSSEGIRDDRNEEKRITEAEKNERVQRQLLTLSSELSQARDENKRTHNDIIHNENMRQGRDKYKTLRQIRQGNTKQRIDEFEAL

Cc1cc(O)c2c(c1)C(=O)c1cc(O)cc(O)c1C2=O [EMODIN]
inhibition [1]: > 80% | inhibition [2]: Dose-dependent effect | pIC50 [3]: 5.46 | inhibition [3]: Dose-dependent effect | inhibition [4]: 70% | inhibition [5]: Active | inhibition [6]: inactive | Activity [7]: Non-toxic | inhibition [8]: Dose-dependent effect
